Source: patent publication US20210255193A1, “LYSINE REACTIVE PROBES AND USES THEREOF” (The Scripps Research Institute, priority 2017, published 2021)

Experiments:
Test in all cases: competitive isoTOP-ABPP
Format in all cases: binding
[1] = biological target: T1, FAH Fumarylacetoacetase (Homo sapiens, UniProt P16930); settings: for isoTOP-ABPP ratio (R) at liganded lysine P16930_K241: 50 uM, in vitro, sol, 231
T1 construct: isoTOP-ABPP experiments performed in cell lysates (in vitro); endogenous in cells; host or cells: soluble proteome of human cancer cell lines (MDA-MB-231; Ramos and Jurkat also prepared)
T1 sequence (P16930 1-419): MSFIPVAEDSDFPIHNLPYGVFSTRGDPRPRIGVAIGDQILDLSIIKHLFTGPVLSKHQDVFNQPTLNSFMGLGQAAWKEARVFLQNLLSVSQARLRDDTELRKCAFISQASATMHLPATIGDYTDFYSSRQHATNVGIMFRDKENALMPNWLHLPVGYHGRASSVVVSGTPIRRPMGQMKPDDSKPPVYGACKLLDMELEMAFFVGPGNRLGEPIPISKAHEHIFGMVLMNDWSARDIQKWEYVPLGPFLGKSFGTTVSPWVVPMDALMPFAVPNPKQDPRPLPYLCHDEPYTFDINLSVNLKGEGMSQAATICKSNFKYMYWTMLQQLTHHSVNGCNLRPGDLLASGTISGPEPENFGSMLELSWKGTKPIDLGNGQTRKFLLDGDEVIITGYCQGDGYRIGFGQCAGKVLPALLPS
Method in brief: (§1)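 Probe: STP-alkyne, 0.1 mM, 1 h RT, after fragment pretreatment of lysate (esters 50 μM; guanidinylators 100 μM). Tags: light = compound, heavy = DMSO, via CuAAC. Replicates averaged if SD <60% of mean; otherwise lowest ratio used when any R <4.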

[2] = biological target: T2, GTPBP3 tRNA modification GTPase GTPBP3, mitochondrial (Homo sapiens, UniProt Q969Y2); settings: for isoTOP-ABPP ratio (R) at liganded lysine Q969Y2_K492: 50 uM, in vitro, sol, 231
T2 construct: isoTOP-ABPP experiments performed in cell lysates (in vitro); endogenous in cells; host or cells: soluble proteome of human cancer cell lines (MDA-MB-231; Ramos and Jurkat also prepared)
T2 sequence (Q969Y2 21-492): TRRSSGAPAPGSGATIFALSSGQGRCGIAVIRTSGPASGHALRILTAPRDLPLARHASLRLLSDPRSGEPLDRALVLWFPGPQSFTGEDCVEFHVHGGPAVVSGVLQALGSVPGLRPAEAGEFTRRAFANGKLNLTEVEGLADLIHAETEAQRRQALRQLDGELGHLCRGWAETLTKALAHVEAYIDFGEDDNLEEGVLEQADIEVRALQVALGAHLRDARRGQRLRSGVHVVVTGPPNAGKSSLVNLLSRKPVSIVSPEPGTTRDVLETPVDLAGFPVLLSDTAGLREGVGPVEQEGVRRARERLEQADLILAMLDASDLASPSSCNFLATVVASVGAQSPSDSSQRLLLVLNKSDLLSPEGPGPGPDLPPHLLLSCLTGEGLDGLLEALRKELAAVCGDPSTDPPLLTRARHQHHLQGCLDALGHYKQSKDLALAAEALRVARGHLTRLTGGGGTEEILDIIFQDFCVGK
Method in brief: as §1

[3] = biological target: T3, RPL10 60S ribosomal protein L10 (Homo sapiens, UniProt P27635); settings: for isoTOP-ABPP ratio (R) at liganded lysine P27635_K121: 50 uM, in vitro, sol, 231
T3 construct: isoTOP-ABPP experiments performed in cell lysates (in vitro); endogenous in cells; host or cells: soluble proteome of human cancer cell lines (MDA-MB-231; Ramos and Jurkat also prepared)
Method in brief: as §1

Row | Structure (SMILES) | isoTOP-ABPP ratio (R) at liganded lysine P16930_K241 [1] | isoTOP-ABPP ratio (R) at liganded lysine Q969Y2_K492 [2] | isoTOP-ABPP ratio (R) at liganded lysine P27635_K121 [3] | isoTOP-ABPP ratio, lysine P16930_K241 ([1]; 50 uM_231_sol_in vitro) | isoTOP-ABPP ratio, lysine Q969Y2_K492 ([2]; 50 uM_231_sol_in vitro) | isoTOP-ABPP ratio, lysine P27635_K121 ([3]; 50 uM_231_sol_in vitro) | further results
1 | O=C(Oc1ccc([N+](=O)[O-])cc1[N+](=O)[O-])C1CCN(C(=O)OCc2ccccc2)CC1 [fragment 34, 1-Benzyl 4-(2,4-dinitrophenyl) piperidine-1,4-dicarboxylate] | 1.2 | 1.6 | 1.3 | – | – | – | –
2 | O=C(CCc1coc2cc(F)ccc2c1=O)Oc1ccc([N+](=O)[O-])cc1[N+](=O)[O-] [fragment 36, 2,4-Dinitrophenyl 3-(7-fluoro-4-oxo-4H-chromen-3-yl)propanoate] | 3.6 | 2.9 | 0.5 | – | – | – | –
3 | O=C(Oc1ccc([N+](=O)[O-])cc1[N+](=O)[O-])c1ccc(-c2ccccc2)cc1 [fragment 37, 2,4-Dinitrophenyl [1,1′-biphenyl]-4-carboxylate] | 1.0 | 1.2 | 0.8 | – | – | – | –
4 | O=C(CC12CC3CC(CC(C3)C1)C2)Oc1ccc([N+](=O)[O-])cc1[N+](=O)[O-] [fragment 38, 2,4-Dinitrophenyl 2-(adamantan-1-yl)acetate] | 1.0 | 1.1 | 20.0 | – | – | – | –
5 | O=C(Oc1ccc([N+](=O)[O-])cc1[N+](=O)[O-])c1ccc(Oc2ccccc2)cc1 [fragment 39, 2,4-Dinitrophenyl 4-phenoxybenzoate] | 1.2 | 1.2 | 1.0 | – | – | – | –
6 | CC(=O)Oc1ccc([N+](=O)[O-])cc1[N+](=O)[O-] [fragment 43, 2,4-Dinitrophenyl acetate] | 1.4 | 1.5 | 20.0 | – | – | – | –
7 | N#Cc1ccc(C(=O)Oc2ccc([N+](=O)[O-])cc2[N+](=O)[O-])cc1 [fragment 44, 2,4-Dinitrophenyl 4-cyanobenzoate] | – | – | – | 2.5 | 0.9 | 0.6 | –
8 | O=C(CCc1ccc2c(c1)OCO2)Oc1ccc([N+](=O)[O-])cc1[N+](=O)[O-] [fragment 45, 2,4-Dinitrophenyl 3-(benzo[d][1,3]dioxol-5-yl)propanoate] | – | – | – | 1.3 | 1.4 | 1.8 | –
9 | O=C(ON1C(=O)CCC1=O)c1cc(C(F)(F)F)cc(C(F)(F)F)c1 [fragment 46, 3,5-Bis(trifluoromethyl)benzoic acid NHS ester] | – | – | – | 8.1 | 1.9 | 0.8 | –
10 | O=C(Oc1c(F)c(F)c(C(F)(F)F)c(F)c1F)c1cc(C(F)(F)F)cc(C(F)(F)F)c1 [fragment 47, 2,3,5,6-Tetrafluoro-4-(trifluoromethyl)phenyl 3,5-bis(trifluoromethyl)benzoate] | – | – | – | 1.2 | 1.7 | 1.1 | –
11 | O=C(Oc1c(F)c(F)cc(F)c1F)c1cc(C(F)(F)F)cc(C(F)(F)F)c1 [fragment 48, 2,3,5,6-Tetrafluorophenyl 3,5-bis(trifluoromethyl)benzoate] | – | – | – | 2.3 | 1.4 | 0.8 | –
12 | CC(C)(C)OC(=O)N=C(NC(=O)OC(C)(C)C)n1cccn1 [fragment 50, reference compound] | – | – | – | – | – | – | isoTOP-ABPP ratio, lysine P16930_K241 ([1]; 100 uM_231_sol_in vitro): 1.5; isoTOP-ABPP ratio, lysine Q969Y2_K492 ([2]; 100 uM_231_sol_in vitro): 0.9; isoTOP-ABPP ratio, lysine P27635_K121 ([3]; 100 uM_231_sol_in vitro): 1.0
